Results published in the supplement of paper PMC10307832.

What was measured:
Assay in all cases: relative viability (nuclei count vs DMSO), 5 days (fraction); higher = more cells survive
[1] = compound: CC1=CC(=CC=C1)NC2=NC(=CS2)C3=CC=NC=C3 + C[C@@H](Oc1cc(-c2cnn(C3CCNCC3)c2)cnc1N)c1c(Cl)ccc(F)c1Cl [Crizotinib] (partner 1 µM)
Summary of the method: (§1)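 Five library-drug doses in √10 steps were combined with a fixed anchor-drug dose, or a single drug was given alone, by pin tool to lung cancer cell lines in 1536-well plates the day after seeding. Nuclei were stained and counted after 5 days. Relative viability is the nuclei count in treated wells over that in vehicle wells, taken as the median of duplicate plates.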

Masitinib + Dasatinib = compound: Cc1ccc(NC(=O)c2ccc(CN3CCN(C)CC3)cc2)cc1Nc1nc(-c2cccnc2)cs1 [Masitinib] + Cc1nc(Nc2ncc(C(=O)Nc3c(C)cccc3Cl)s2)cc(N2CCN(CCO)CC2)n1 [Dasatinib] (partner 0.075 µM)
Summary of the method: as §1

Masitinib + Luminespib = compound: Cc1ccc(NC(=O)c2ccc(CN3CCN(C)CC3)cc2)cc1Nc1nc(-c2cccnc2)cs1 [Masitinib] + CCNC(=O)c1noc(-c2cc(C(C)C)c(O)cc2O)c1-c1ccc(CN2CCOCC2)cc1 [Luminespib] (partner 0.01 µM)
Summary of the method: as §1

Masitinib + Navitoclax = compound: Cc1ccc(NC(=O)c2ccc(CN3CCN(C)CC3)cc2)cc1Nc1nc(-c2cccnc2)cs1 [Masitinib] + CC1(C)CCC(c2ccc(Cl)cc2)=C(CN2CCN(c3ccc(C(=O)NS(=O)(=O)c4ccc(N[C@H](CCN5CCOCC5)CSc5ccccc5)c(S(=O)(=O)C(F)(F)F)c4)cc3)CC2)C1 [Navitoclax] (partner 0.5 µM)
Summary of the method: as §1

Row | Cell Line | relative viability ([1]; first compound 0.253 µM) | relative viability ([1]; first compound 0.8 µM) | relative viability ([1]; first compound 2.53 µM) | relative viability ([1]; first compound 8 µM) | relative viability (Masitinib + Dasatinib; first compound 0.01 µM) | relative viability (Masitinib + Dasatinib; first compound 0.03162 µM) | relative viability (Masitinib + Dasatinib; first compound 0.1 µM) | relative viability (Masitinib + Dasatinib; first compound 0.3162 µM) | relative viability (Masitinib + Dasatinib; first compound 1 µM) | relative viability (Masitinib + Luminespib; first compound 0.01 µM) | relative viability (Masitinib + Luminespib; first compound 0.03162 µM) | relative viability (Masitinib + Luminespib; first compound 0.1 µM) | relative viability (Masitinib + Luminespib; first compound 0.3162 µM) | relative viability (Masitinib + Luminespib; first compound 1 µM) | relative viability (Masitinib + Navitoclax; first compound 0.01 µM) | relative viability (Masitinib + Navitoclax; first compound 0.03162 µM) | relative viability (Masitinib + Navitoclax; first compound 0.1 µM) | relative viability (Masitinib + Navitoclax; first compound 0.3162 µM) | relative viability (Masitinib + Navitoclax; first compound 1 µM) | relative viability ([1]; first compound 0.08 µM)
1 | LU99A | 0.546 | 0.717 | 0.52 | 0.718 | 0.583 | 0.619 | 0.557 | 0.503 | 0.503 | 0.3 | 0.219 | 0.271 | 0.353 | 0.191 | 0.755 | 0.758 | 0.887 | 0.97 | 0.791 | 
2 | LXF-289 | 0.785 | 0.827 | 0.836 | 0.751 | 0.223 | 0.206 | 0.238 | 0.202 | 0.207 | 0.581 | 0.796 | 0.775 | 0.746 | 0.541 | 0.843 | 0.927 | 0.966 | 0.992 | 0.934 | 0.775
3 | NCI-H23 | 0.469 | 0.474 | 0.531 | 0.526 | 0.713 | 0.69 | 0.786 | 0.859 | 0.805 |  | 0.253 | 0.221 | 0.22 | 0.206 | 0.879 | 0.789 | 0.966 | 0.706 | 0.872 | 0.417
4 | NCI-H322M | 0.808 | 0.775 | 0.859 | 0.834 | 0.259 | 0.286 | 0.236 | 0.236 | 0.253 | 0.875 | 0.924 | 0.878 | 0.876 | 0.812 | 1.18 | 1.15 | 1.3 | 1.22 | 1.26 | 0.846
5 | NCI-H441 | 0.831 | 0.791 | 0.69 | 0.663 | 0.846 | 0.623 | 0.723 | 0.659 | 0.511 | 0.288 | 0.402 | 0.349 | 0.407 | 0.318 | 0.782 | 0.78 | 0.522 | 0.749 | 0.602 | 0.751
6 | NCI-H460 | 0.827 | 0.913 | 1 | 0.811 | 0.392 | 0.447 | 0.561 | 0.344 | 0.485 | 0.0454 | 0.0362 | 0.0338 | 0.0453 | 0.0276 | 1.22 | 0.834 | 1.27 | 1.33 | 1.26 | 0.753
7 | NCI-H520 | 0.9 | 0.81 | 0.839 | 0.939 | 0.245 | 0.225 | 0.247 | 0.292 | 0.215 | 0.223 | 0.24 | 0.24 | 0.217 | 0.2 | 1.21 |  | 1.17 | 1.05 | 1.08 | 0.741
8 | NCI-H596 | 0.929 | 0.814 | 0.943 | 0.971 | 0.594 | 0.566 | 0.675 | 0.667 | 0.615 | 0.936 | 1.03 | 1.11 | 0.53 | 1.02 | 0.876 | 0.855 | 0.86 | 0.894 | 0.866 | 0.875
9 | NCI-H647 | 0.909 | 0.953 | 1.02 | 0.86 | 0.181 | 0.208 | 0.186 | 0.171 | 0.155 | 0.223 | 0.141 | 0.13 | 0.195 | 0.259 | 1.14 | 1.1 | 1.08 | 1.23 | 1.09 | 1.04
10 | NCI-H727 | 0.737 | 0.922 | 0.759 | 0.575 | 0.332 | 0.315 | 0.346 | 0.383 | 0.35 | 0.494 | 0.324 | 0.831 | 0.341 | 0.416 | 0.424 | 0.431 | 0.385 | 0.347 | 0.434 | 0.621
11 | NCI-H838 | 0.661 | 0.749 | 0.819 | 0.682 | 0.304 | 0.258 | 0.344 | 0.266 | 0.229 | 0.314 | 0.309 | 0.245 | 0.241 | 0.263 | 1.06 | 0.936 | 1.14 | 1.01 | 1.11 | 0.817
12 | NCI-H1355 | 0.781 | 0.705 | 0.701 | 0.61 | 0.69 | 0.485 | 0.701 | 0.436 | 0.69 | 0.643 | 0.564 | 0.766 | 0.623 | 0.738 | 0.956 | 0.842 | 1 | 0.754 | 0.946 | 1.02
13 | NCI-H1437 | 1.03 | 0.91 | 1.06 | 0.926 | 0.457 | 0.396 | 0.454 | 0.527 | 0.387 | 1.15 | 1.19 | 1.16 | 1.18 | 1.14 | 1.07 | 1.01 | 1.08 | 1.1 | 1.06 | 0.938
14 | NCI-H1650 | 0.728 | 0.83 | 0.919 | 1.03 | 0.366 | 0.32 | 0.348 | 0.276 | 0.27 | 0.195 | 0.227 | 0.221 | 0.191 | 0.206 | 1.25 | 0.981 | 1.15 | 1.13 | 1.14 | 0.946
15 | NCI-H1651 | 0.869 | 0.897 | 0.851 | 0.897 | 0.403 | 0.469 | 0.443 | 0.383 | 0.419 | 0.823 | 1.23 | 0.822 | 0.75 | 0.769 | 1.11 | 1 | 1.15 | 1.02 | 1.1 | 0.854
16 | NCI-H1666 | 0.567 | 0.526 | 0.567 | 0.386 |  | 0.713 | 0.858 | 0.818 | 0.817 |  | 1.05 | 1.1 | 1.03 | 1.01 | 0.933 | 0.778 | 0.915 | 0.782 | 0.88 | 0.722
